# Publication PMC10480608 (Heliyon, 2023)
# Legend:
# [1] = tested on: normal human dermal/fibroblasts; experiment: MTT cytotoxicity assay, normal fibroblasts; assay type: cell-based; details: Homo sapiens, Fibroblast, 72 h, read-out: IC50 ± SD, Fibro dental
# MCF-7 cell lines = experiment: Dose response study, growth rate; assay type: cell-based, human; details: MCF-7, treatment for 24 h, tested 1–300 μg/mL
# [2] = tested on: MCF-7 (human breast adenocarcinoma); experiment: MTT cytotoxicity assay, MCF-7; assay type: cell-based; details: Homo sapiens, MCF7, 72 h, read-out: IC50 ± SD, MCF7
SMILES,IC50 [1] [µM],concentration range with cytostatic effect (GR values) (MCF-7 cell lines),concentration range with cytotoxic effect (GR values) (MCF-7 cell lines),IC50 [2] [µM]
"Cc1nc([N+](=O)[O-])c(N2CCN(Cc3cn(Cc4cccc(F)c4)nn3)CC2)n1Cc1ccccc1 [Compound 9g, 1-(N1-benzyl-2-methyl-4-nitro-imidazole-5-yl)-4-((N1-(3-fluorobenzyl)-1H-1,2,3-triazol-4-yl)methyl)piperazine]",> 500,1 to 300 µg/mL,did not show cytotoxic effects,2 ± 0.03
"Cc1ccc(Cn2cc(CN3CCN(c4c([N+](=O)[O-])nc(C)n4Cc4ccccc4)CC3)nn2)cc1 [Compound 9k, 1-(N1-benzyl-2-methyl-4-nitro-imidazole-5-yl)-4-((N1-(4-methylbenzyl)-1H-1,2,3-triazol-4-yl)methyl)piperazine]",> 500,37.5 to 1 μg/mL,75 to 300 µg/mL,5 ± 2
